Experimental data taken from patent publication US5194379A, “Microbial transformation process for the preparation of hydroxylanol imidazo (4,5-b) pyridines useful as angiotensin II receptor antagonists” (Merck & Co., Inc., priority 1991, dated 1993).

Target: T1, Angiotensin II (A II) receptor (Oryctolagus cuniculus, UniProt P34976)
T1 sequence (P34976 1-359): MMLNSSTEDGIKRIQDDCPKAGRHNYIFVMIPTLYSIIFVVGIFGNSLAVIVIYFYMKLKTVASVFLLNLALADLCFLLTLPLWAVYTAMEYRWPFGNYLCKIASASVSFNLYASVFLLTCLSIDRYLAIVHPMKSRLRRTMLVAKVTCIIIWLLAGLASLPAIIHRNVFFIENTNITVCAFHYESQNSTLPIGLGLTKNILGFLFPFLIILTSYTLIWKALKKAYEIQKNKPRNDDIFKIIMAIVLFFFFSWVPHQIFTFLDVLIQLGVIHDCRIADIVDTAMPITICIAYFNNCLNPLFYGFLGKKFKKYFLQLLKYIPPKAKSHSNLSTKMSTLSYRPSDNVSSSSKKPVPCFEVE
Experiment: Receptor Binding Assay Using Rabbit Aortae Membrane Preparation (displacement of 125I-Sar1Ile8-angiotensin II)
Protocol: This assay is also referred to herein as the "IC50 " assay.
Receptor Binding Assay Using Rabbit Aortae Membrane Preparation
Three frozen rabbit aortae (obtained from Pel-Freeze Biologicals) were suspended in 5 mM Tris-0.25M Sucrose, pH 7.4 buffer (50 ml) homogenized, and then centifuged. The mixture was filtered through a cheesecloth and the supernatant was centrifuged for 30 minutes at 20,000 rpm at 4° C. The pellet thus obtained was resuspended in 30 ml of 50 mM Tris-5 mM MgCl2 buffer containing 0.2% Bovine Serum Albumin and 0.2 mg/ml Bacitration and the suspension was used for 100 assay tubes. Samples tested for screening were done in duplicate. To the membrane preparation (0.25 ml) there was added ^125 I-Sar^1 Ile^8 -angiotensin II [obtained from New England Nuclear] (10 ul; 20,000 cpm) with or without the test sample and the mixture was incubated at 37° C. for 90 minutes. The mixture was then diluted with ice-cold 50 mM Tris---0.9% NaCl, pH 7.4 (4 ml) and filtered through a glass fiber filter (GF/B Whatman 2.4" diameter). The filter was soaked in scintillation cocktail (10 ml) and counted for radioactivity using Packard 2260 Tricarb liquid scintillation counter. […]

SMILES | A II antagonist activity by the IC50 assay (in words)
CCc1nc2c(C)cc(CO)nc2n1Cc1ccc(-c2ccccc2-c2nnn[nH]2)cc1 [compound (I)] | exhibit A II antagonist activity
CCc1nc2c(CO)cc(C)nc2n1Cc1ccc(-c2ccccc2-c2nnn[nH]2)cc1 [compound (II)] | exhibit A II antagonist activity
